Test results taken from patent publication US5679641A, “Peptides of human P53 protein for use in human T cell response inducing compositions, and human P53 protein-specific cytotoxic t-lymphocytes” (Rijksuniversiteit Leiden, priority 1992, dated 1997).
No end group written: not given here.

Tests used:
HLA-A2.1 positive PBL = assay: Induction of primary in vitro CTL response with peptide loaded 174CEM.T2 cells, cloning of CTL; assay type: cell-based, human; conditions: peptide loaded antigen processing defective cell line 174.CEM T2, peptide 80 μg/ml, PBL of healthy HLA-A2.1 positive donor
Method: Responder T cells are included in mononuclear white blood cells (PBL) of an HLA-A2.1 positive healthy donor. The PBL were separated from a buffycoat by Ficoll procedure (LYMPHOPREP of Nycomed-pharma, Oslo, Norway, cat. no. 105033) and washed two times in RPMI 1640 (Gibco Paislan, Scotland, cat. no. 041-02409) supplemented with 30% pooled human serum (tested for its capacity to support mixed lymphocyte cultures), 2 mM glutamine (ICN Biochemicals, Inc., Costa Mesa, Calif., USA, cat. no. 15-801-55), penicillin (100 IU/ml, Brocades Pharma, Leiderdorp, The Netherlands), kanamycin ([…], Sigma, St. Louis, Mo., USA).
174CEM.T2 (T2) cells in a concentration of 2×10^6 per ml were incubated for 13 hours at 37° C. in a T25 flask (Falcon, Becton & Dickinson, Plymouth, England, cat. no. 3013) in serum-free ISCOVE's medium (Biochrom KG, Seromed, Berlin, Gemany, cat. no. F0465) with glutamine (2 mM, ICN Biochemicals Inc., Costa Mesa, Calif., USA, cat. no. 15-801-55) and antibiotics as mentioned under 2 and individual p53 peptides at a final concentration of 80 μg/ml. Subsequently the T2 cells were spun down and treated at a density of 20×10^6 cells/ml with Mitomycin C (final concentration 50 μg/ml) in serum-free RPMI 1640 (manufacturer see 2) medium during one hour at 37° C. Thereafter the T2 cells were washed three times in RPMI 1640. […]

HLA-A2.1 molecule = target: T1, HLA-A2.1 molecule (Homo sapiens, UniProt P04439, D140Y/D185E/D98H/E176V/E277Q/G131W/G231S/I119V/I121R/I166T/I218V/L300P/L318F/N151K/N90K/P208A/P217A/Q86G/Q94H/R138H/R169H/T345S); assay: Peptide binding: upregulation of HLA-A2.1 expression on (174.CEM) T2 cells, FACScan; assay type: cell-based; conditions: for fluorescence ratio (i.e. binding ability): 200 μg/ml peptide, 16 hours at 37° C., (174.CEM) T2 cells, antibody BB7.2, mean fluorescence with peptide divided by without, positive when ratio of 1.2 is reached
T1 construct: endogenous in cells; host or cells: 174.CEM T2 (antigen-processing-defective human T x B hybrid cell line, provided by P. Cresswell)

Row | Molecule | primary in vitro human CTL response against the peptide (HLA-A2.1 positive PBL) | fluorescence ratio (i.e. binding ability) (HLA-A2.1 molecule) | binding to HLA-A2.1 molecule (in words) (HLA-A2.1 molecule; 174.CEM T2 cells, mean HLA-A2.1 fluorescence)
1 | LLPENNVLS [compound 3, residues 25-33 of human p53] | possible so far to generate a primary in vitro human CTL response | 1.7 | strong ability to bind to HLA-A2.1
2 | ALNKMFYQL [compound 27] | – | 1.2 | –
3 | CSCC[C@H](NC(=O)[C@H](CCCCN)NC(=O)[C@H](CC(N)=O)NC(=O)[C@H](CC(C)C)NC(=O)[C@H](C)N)C(=O)N[C@@H](Cc1ccccc1)C(=O)N[C@@H](CS)C(=O)N[C@@H](CCC(N)=O)C(=O)N[C@@H](CC(C)C)C(=O)N[C@@H](C)C(=O)O [compound 11, ALNKMFCOLA] | – | 1.4 | –
4 | KLFCQLAXT (KLFCQLAKT) [compound 29, residues 132-140 of human mp53 (mutant p53)] | – | 1.3 | –
